Experimental data published in ChEMBL document CHEMBL1201862, “PubChem BioAssay data set” (2004).
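Cells were grown in 96-well plates and exposed to each compound for 48 hours at five concentrations; endpoints were interpolated linearly between bracketing concentrations, or set to the highest concentration if not reached. Abbreviation: GI50, concentration required for 50% inhibition of growth.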 Activity calls are given as the source filed them. No stated cut-off is given here; in the data, active = GI50 up to about 1.1 µM and inactive = higher.

Experiments:
Test in all cases: DTP human tumour cell line panel, 48 h
MCF7 = test system: MCF7
ACHN = test system: ACHN
A549 = test system: A549
SK-MEL-28 = test system: SK-MEL-28
MDA-MB-231 = test system: MDA-MB-231
UACC-257 = test system: UACC-257
SK-MEL-2 = test system: SK-MEL-2
HT-29 = test system: HT-29
SF-539 = test system: SF-539
CCRF-CEM = test system: CCRF-CEM
NCI-H460 = test system: NCI-H460
MDA-N = test system: MDA-N
HOP-62 = test system: HOP-62
HCT-116 = test system: HCT-116
SNB-19 = test system: SNB-19
SK-MEL-5 = test system: SK-MEL-5
SF-268 = test system: SF-268
RXF 393 = test system: RXF 393
EKVX = test system: EKVX
SR = test system: SR

Measured: GI50

COc1ccc(OC)c2c1C(=O)C(O)=C(Cl)C2=O
inactive: MCF7 > 100 µM | ACHN > 100 µM | A549 > 100 µM | SK-MEL-28 > 100 µM | MDA-MB-231 > 100 µM | UACC-257 > 100 µM | SK-MEL-2 > 100 µM | HT-29 > 100 µM | SF-539 > 100 µM | CCRF-CEM > 100 µM | NCI-H460 > 100 µM | MDA-N > 100 µM | HOP-62 > 100 µM | HCT-116 > 100 µM | SNB-19 > 100 µM | SK-MEL-5 > 100 µM | SF-268 > 100 µM | RXF 393 > 100 µM

CN(C)CCCNC(=O)CCNC(=O)c1cc(NC(=O)c2cc(NC(=O)c3cc(NC(=O)c4nccn4C)cn3C)cn2C)cn1C
inactive: MCF7 > 100 µM | ACHN > 100 µM | A549 > 100 µM | EKVX > 100 µM | SK-MEL-28 > 100 µM | MDA-MB-231 > 100 µM | UACC-257 > 100 µM | SK-MEL-2 > 100 µM | HT-29 > 100 µM | SF-539 54.6 µM | CCRF-CEM > 46.8 µM | NCI-H460 > 100 µM | MDA-N > 100 µM | HOP-62 > 100 µM | HCT-116 > 100 µM | SNB-19 29.6 µM | SK-MEL-5 > 100 µM | SF-268 44.8 µM | RXF 393 > 100 µM

O=C(OCC1CCCN2CCCCC12)c1cccnc1 (stereo not drawn)
inactive: MCF7 > 100 µM | ACHN > 100 µM | A549 > 100 µM | EKVX > 100 µM | SK-MEL-28 > 100 µM | MDA-MB-231 > 100 µM | UACC-257 > 100 µM | SK-MEL-2 > 100 µM | HT-29 > 100 µM | SF-539 > 100 µM | CCRF-CEM > 100 µM | NCI-H460 > 100 µM | MDA-N > 100 µM | HCT-116 > 100 µM | SNB-19 > 100 µM | SK-MEL-5 > 100 µM | SF-268 > 100 µM | RXF 393 > 100 µM

O=C1CCCc2cc3c(cc21)CC1(Cc2ccccc2C1)C3
inactive: MCF7 3.9 µM | ACHN 4.55 µM | A549 6.17 µM | EKVX 9.14 µM | MDA-MB-231 8.18 µM | UACC-257 3.48 µM | SK-MEL-2 15 µM | HT-29 2.8 µM | SF-539 3.89 µM | MDA-N 1.42 µM | HOP-62 6.04 µM | HCT-116 3.9 µM | SK-MEL-5 4.89 µM | RXF 393 8.83 µM

OC(CCN1CCN(CCOC(c2ccccc2)c2ccccc2)CC1)c1ccccc1 (stereo not drawn)
inactive: MCF7 22.4 µM | ACHN 27 µM | A549 44.6 µM | EKVX 19.7 µM | SK-MEL-28 17.9 µM | MDA-MB-231 15.9 µM | UACC-257 17.9 µM | SK-MEL-2 15.8 µM | HT-29 15.9 µM | SF-539 20.1 µM | CCRF-CEM 27.7 µM | NCI-H460 18.6 µM | MDA-N 19.3 µM | HOP-62 20.5 µM | HCT-116 17.5 µM | SNB-19 32.4 µM | SK-MEL-5 15.3 µM | SF-268 22.8 µM | RXF 393 19.9 µM

CN(C)/C=C/c1nnc([N+](=O)[O-])s1
inactive: MCF7 2.17 µM | ACHN 15.5 µM | A549 19.9 µM | MDA-MB-231 18.2 µM | UACC-257 14.2 µM | SK-MEL-2 17.2 µM | HT-29 3.57 µM | SF-539 8.79 µM | NCI-H460 11.6 µM | MDA-N 4.28 µM | HOP-62 22.8 µM | HCT-116 5.94 µM | SNB-19 26.3 µM | SK-MEL-5 12 µM | SF-268 14.6 µM | RXF 393 14.7 µM

Cc1ccc(S(=O)(=O)N2CCSCCN(S(=O)(=O)c3ccc(C)cc3)CCN(S(=O)(=O)c3ccc(C)cc3)CC2)cc1
inactive: MCF7 59.7 µM | A549 > 100 µM | EKVX 47.5 µM | SK-MEL-28 > 100 µM | MDA-MB-231 17.4 µM | SK-MEL-2 25.9 µM | HT-29 > 100 µM | SF-539 17.6 µM | CCRF-CEM > 100 µM | NCI-H460 > 100 µM | MDA-N > 100 µM | HOP-62 20.7 µM | HCT-116 78.5 µM | SNB-19 29.2 µM | SK-MEL-5 > 100 µM | SF-268 16.7 µM | RXF 393 27.9 µM

COC1OC2COC(=O)c3cc(O)c(O)c(O)c3-c3c(cc(O)c(O)c3O)C(=O)OC2C(O)C1O (stereo not drawn)
inactive: MCF7 42.6 µM | ACHN 77.8 µM | A549 72.6 µM | EKVX > 100 µM | SK-MEL-28 > 100 µM | MDA-MB-231 > 100 µM | UACC-257 > 100 µM | SK-MEL-2 84.5 µM | HT-29 34.4 µM | SF-539 > 100 µM | CCRF-CEM 37.3 µM | NCI-H460 45.3 µM | MDA-N 24 µM | HOP-62 53 µM | HCT-116 34.9 µM | SNB-19 > 100 µM | SK-MEL-5 84.7 µM | SF-268 64 µM | RXF 393 > 100 µM

CCc1c(Cl)c(C)cc(O)c1Cl
inactive: MCF7 32 µM | ACHN 22.1 µM | A549 44.4 µM | EKVX 36.2 µM | SK-MEL-28 58.3 µM | MDA-MB-231 40.7 µM | UACC-257 29.6 µM | SK-MEL-2 20.8 µM | HT-29 27.5 µM | SF-539 23 µM | CCRF-CEM 25.7 µM | NCI-H460 32.7 µM | MDA-N 19.4 µM | HOP-62 > 100 µM | HCT-116 33.5 µM | SNB-19 38.7 µM | SK-MEL-5 15.3 µM | SF-268 53.8 µM | RXF 393 23.4 µM

Nc1ncnc2c1ccn2COC(CO)CO
inactive: MCF7 92 µM | ACHN > 100 µM | A549 > 100 µM | EKVX > 100 µM | SK-MEL-28 > 100 µM | MDA-MB-231 > 100 µM | UACC-257 > 100 µM | SK-MEL-2 > 100 µM | HT-29 > 100 µM | SF-539 > 100 µM | CCRF-CEM > 100 µM | NCI-H460 > 100 µM | MDA-N > 100 µM | HOP-62 > 100 µM | HCT-116 > 100 µM | SNB-19 > 100 µM | SK-MEL-5 > 100 µM | SF-268 > 100 µM | RXF 393 49.4 µM

CCN(CC)CCC(=O)/C=C/c1ccc(Cl)c(Cl)c1
inactive: MCF7 3.36 µM | ACHN 3.03 µM | A549 2.78 µM | EKVX > 10 µM | MDA-MB-231 3.48 µM | UACC-257 > 10 µM | SK-MEL-2 8.55 µM | CCRF-CEM 2.45 µM | NCI-H460 4.94 µM | MDA-N 2.63 µM | HOP-62 > 10 µM | SR 2.83 µM | HCT-116 1.71 µM | SNB-19 5.79 µM | SF-268 3.05 µM
